Here are results for one molecule from patent US9199200B2, “Submerged membrane bioreactor system and biological methods for removing bisphenol compounds from municipal wastewater” (Centre de Recherche Industrielle de Québec (CRIQ), priority 2010, dated 2015).

Molecules are shown by their SMILES.

In this data set the test system is biomass (activated sludge) of the SMBR. The data set can be described thus: COD removal in submerged membrane bioreactor (SMBR) fed synthetic wastewater contaminated by BPA. An excerpt:
According to another embodiment, a submerged membrane bioreactor system (SMBR) operated at the laboratory scale is represented in the diagram of FIG. 1. The pilot unit is comprised of ZEEWEED® (ZW-1) hollow-fibre membranes of 0.04 μm rated pore diameter and 0.047 m^2 total filtering surface area, assembled vertically. The membrane unit is provided by Zenon Environmental & Co (Oakville, ON, Canada). ZW-1 membrane, whose module contains 80 fibres of 20 cm length, may be either operated in closed loop or in continuous mode of operation, through a stirred 6 L tank of 19.1 cm water high. Filtration may be achieved by drawing water through the membrane under a slight vacuum generated by a peristaltic pump (11) and measured by a manometer (10) located just after the membrane on the aspiration line. Air may be supplied through an extended aeration tube located inside the membrane module and also used to attach it vertically. The filtration of the effluent may be carried out intermittently (5 min of filtration followed by 30 s of pause) but air should be continuously injected in the SMBR system. An oxygen probe (5) may be connected to an oxymeter and installed in the bioreactor tank to measure dissolved oxygen concentration. The air flow-rate may be measured using a flow-meter (17). pH and temperature can also be measured during the experiments by using pH (8) and temperature (9) probes installed in the bioreactor tank.
According to some embodiments of the present invention, the SMBR system may be seeded by activated sludge collected from any suitable municipal wastewater treatment plant. The first step consists in developing the biomass by using a synthetic wastewater of a known composition carried out according known techniques. For example, the initial biomass may be developed using glucose as an organic substrate (400-2000 mg/L of COD), although any other suitable sources of carbon may be employed as organic substrates, for example sodium acetate or peptone. The biomass is developed over a period of time suitable to obtain a sufficiently concentrated biomass. […]
According to an embodiment, the biomass may be acclimatized in oxidizing the bisphenol compound over of period of time sufficient to obtain a biomass capable of oxidizing said bisphenol compound. […] It is worth noting that, during both successive stages (biomass development and biomass acclimatization), the performance of the SMBR was evaluated by the measurements of COD. […]
During the experimental work, samples are taken for different analyses. […] BPA is also analyzed using liquid chromatography mass spectrometer (LC-MS/MS) after extraction and purification on a solid phase. […]

Regarding `CC(C)(c1ccc(O)cc1)c1ccc(O)cc1` [BPA, 2,2-Bis(4-hydroxyphenyl)propane], for the setting “14 g VSS/L, HRT 6 h”, the “BPA concentration at the entry of the SMBR from which foam is observed in the mixed liquor (perturbation in the bacterial activity)” value is listed as ≥ 25 mg/L. For the same molecule, the “Volumetric loading at which BPA became toxic for the bacterial activity” value (SMBR, around 5.0 mg/L BPA) was 21.6 g BPA/m^3/d. For the setting “SMBR, at 25 mg BPA/L”, the “Limit of toxicity, organic loading” value worked out at 7.71 g BPA/kg VSS/d and the “Limit of toxicity, volumetric loading” value is recorded as “about 108 g BPA/m^3/d”.
